Patent US20130216498A1, “IMIDAZOPYRIDINE DERIVATIVES AS JAK INHIBITORS” (priority 2009, published 2013)

What was measured:
Assay type in all cases: biochemical
[1] = biological target: T1, human JAK3 (aa 795-1124) catalytic domain (Homo sapiens, UniProt P52333); assay: In vitro JAK kinase assay (TR-FRET), JAK3; conditions: GST-fusion catalytic domain; ATP 0.6 μM; poly (GT)-Biotin 140 nM; 30 minutes at room temperature
T1 construct: JAK3 (aa 795-1124); GST (N); purchased Carna Biosciences; host or cells: baculovirus expression system
T1 sequence (P52333 795-1124): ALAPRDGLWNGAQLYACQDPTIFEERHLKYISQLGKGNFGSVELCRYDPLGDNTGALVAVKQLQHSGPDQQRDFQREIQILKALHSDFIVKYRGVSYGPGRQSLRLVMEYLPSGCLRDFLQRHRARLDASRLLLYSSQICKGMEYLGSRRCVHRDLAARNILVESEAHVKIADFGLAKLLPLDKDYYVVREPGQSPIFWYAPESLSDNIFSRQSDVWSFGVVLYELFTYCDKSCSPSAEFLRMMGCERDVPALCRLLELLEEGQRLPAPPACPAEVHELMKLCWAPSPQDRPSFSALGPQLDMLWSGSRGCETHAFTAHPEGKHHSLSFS
Procedure: (§1) Compounds were screened for their ability to inhibit JAK1, JAK2 and JAK3 using the assays as indicated below.
(§2) The catalytic domains of human JAK1 (aa 850-1154), JAK2 (aa 826-1132), JAK3 (aa 795-1124) and Tyk2 (aa 871-1187) were expressed as N-terminal GST-fusion proteins using a baculovirus expression system and were purchased from Carna Biosciences. The enzymatic activity was assayed using as substrate a biotinylated peptide, poly (GT)-Biotin (CisBio). The peptide concentration in the reactions was 60 nM for JAK1, 20 nM for JAK2, 140 nM for JAK3 and 50 nM for Tyk2. The degree of phosphorylation was detected by TR-FRET (time-resolved fluorescence energy transfer).
(§3) IC50s of compounds were measured for each kinase in a reaction mixture containing the enzyme, ATP and the peptide in 8 mM MOPS (pH 7.0), 10 mM MgCl2, 0.05% β-mercaptoethanol, 0.45 mg/mL BSA. The ATP concentration in the reactions was 3 μM for JAK1, 0.2 μM for JAK2, 0.6 μM for JAK3 and 1.8 μM for Tyk2. The enzymatic reactions took place for 30 minutes at room temperature. Then, the reactions were stopped with 20 μL of quench detection buffer (50 mM HEPES, 0.5 M KF, EDTA 0.25 M, 0.1% (w/v) BSA, pH 7.5) containing 0.115 μg/mL of anti-phosphoTyr (PT66)-Cryptate (CisBio) and a variable concentration of SA-XL665 (CisBio) to keep the SA-B ratio constant. Incubate for 3 h and read on Victor 2V spectrofluorometer (PerkinElmer) set to read fluorescence resonance energy transfer.

[2] = biological target: T2, human JAK2 (aa 826-1132) catalytic domain (Homo sapiens, UniProt O60674); assay: In vitro JAK kinase assay (TR-FRET), JAK2; conditions: GST-fusion catalytic domain; ATP 0.2 μM; poly (GT)-Biotin 20 nM; 30 minutes at room temperature
T2 construct: JAK2 (aa 826-1132); GST (N); purchased Carna Biosciences; host or cells: baculovirus expression system
T2 sequence (O60674 826-1132): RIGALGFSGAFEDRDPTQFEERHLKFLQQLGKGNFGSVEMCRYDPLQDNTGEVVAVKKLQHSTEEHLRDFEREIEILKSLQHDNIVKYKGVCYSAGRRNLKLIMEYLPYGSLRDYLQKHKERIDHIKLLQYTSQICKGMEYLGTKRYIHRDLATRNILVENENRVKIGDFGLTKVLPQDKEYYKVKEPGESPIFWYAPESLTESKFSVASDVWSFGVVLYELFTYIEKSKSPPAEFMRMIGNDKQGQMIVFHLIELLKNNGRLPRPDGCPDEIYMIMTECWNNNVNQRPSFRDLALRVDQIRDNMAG
Procedure: as §1, §2, §3

[3] = biological target: T3, human JAK1 (aa 850-1154) catalytic domain (Homo sapiens, UniProt P23458); assay: In vitro JAK kinase assay (TR-FRET), JAK1; conditions: GST-fusion catalytic domain; ATP 3 μM; poly (GT)-Biotin 60 nM; 30 minutes at room temperature
T3 construct: human JAK1 (aa 850-1154); GST (N); purchased Carna Biosciences; host or cells: baculovirus expression system
T3 sequence (P23458 850-1154): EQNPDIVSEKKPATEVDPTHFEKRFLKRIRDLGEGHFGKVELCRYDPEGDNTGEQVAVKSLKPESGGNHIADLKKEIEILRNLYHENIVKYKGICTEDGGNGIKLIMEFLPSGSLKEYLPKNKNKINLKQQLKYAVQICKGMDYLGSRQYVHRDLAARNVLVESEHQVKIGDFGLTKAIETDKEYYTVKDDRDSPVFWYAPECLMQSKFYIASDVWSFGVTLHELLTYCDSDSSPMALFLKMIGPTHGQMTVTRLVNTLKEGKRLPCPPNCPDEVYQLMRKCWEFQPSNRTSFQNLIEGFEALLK
Procedure: as §1, §2, §3

Row | Compound | IC50 [1] | IC50 [2] | IC50 [3]
1 | CC(C)(C)CNc1nc(-c2cnc3ccc(C#N)cn23)ncc1N1CCNCC1 [Example 10, 3-{4-[(2,2-Dimethylpropyl)amino]-5-piperazin-1-ylpyrimidin-2-yl}imidazo[1,2-a]pyridine-6-carbonitrile] | 0.1 to 1 µM | < 0.1 µM | > 1 µM
2 | N#CCC(=O)N1CCC[C@@H](Nc2cc(N)nc(-c3cnc4ccc(F)cn34)n2)C1 [Example 183, (R)-3-(3-(6-Amino-2-(6-fluoroimidazo[1,2-a]pyridin-3-yl)pyrimidin-4-ylamino)piperidin-1-yl)-3-oxopropanenitrile] | < 0.1 µM | < 0.1 µM | < 0.1 µM
3 | N#CCC(=O)N1CCC[C@@H](Nc2cc(N3CCNCC3)nc(-c3cnc4ccc(F)cn34)n2)C1 [Example 166, (R)-3-(3-(2-(6-Fluoroimidazo[1,2-a]pyridin-3-yl)-6-(piperazin-1-yl)pyrimidin-4-ylamino)piperidin-1-yl)-3-oxopropanenitrile] | < 0.1 µM | < 0.1 µM | 0.1 to 1 µM
4 | Nc1cnc(-c2cnc3ccc(F)cn23)nc1NC1CCCc2ncccc21 (stereo not drawn) [Example 137, 2-(6-Fluoroimidazo[1,2-a]pyridin-3-yl)-N^4-(5,6,7,8-tetrahydroquinolin-5-yl)pyrimidine-4,5-diamine] | 0.1 to 1 µM | < 0.1 µM | > 1 µM
5 | O=C(c1cn[nH]c1)N1CCC[C@@H](Nc2ccnc(-c3cnc4ccc(F)cn34)n2)C1 [Example 67, 2-(6-Fluoroimidazo[1,2-a]pyridin-3-yl)-N-[(3R)-1-(1H-pyrazol-4ylcarbonyl)piperidin-3-yl]pyrimidin-4-amine] | 0.1 to 1 µM | < 0.1 µM | 0.1 to 1 µM
6 | Cc1cnc(-c2cnc3ccc(F)cn23)nc1N[C@@H]1CCCN(C(=O)CC(F)(F)F)C1 [Example 80, 2-(6-Fluoroimidazo[1,2-a]pyridin-3-yl)-5-methyl-N-[(3R)-1-(3,3,3-trifluoropropanoyl)piperidin-3-yl]pyrimidin-4-amine] | < 0.1 µM | < 0.1 µM | < 0.1 µM
7 | O=C(C1CC1(F)F)N1CCC[C@@H](Nc2ccnc(-c3cnc4ccc(F)cn34)n2)C1 (stereo partly drawn) [Example 102, (2,2-Difluorocyclopropyl)((R)-3-(2-(6-fluoroimidazo[1,2-a]pyridin-3-yl)pyrimidin-4-ylamino)piperidin-1-yl)methanone] | 0.1 to 1 µM | < 0.1 µM | > 1 µM
8 | N#Cc1ccc2ncc(-c3nccc(NC4CCCCC4)n3)n2c1 [Example 21, 3-[4-(Cyclohexylamino)pyrimidin-2-yl]imidazo[1,2-a]pyridine-6-carbonitrile] | < 0.1 µM | < 0.1 µM | 0.1 to 1 µM
9 | N#CCC(=O)N1CCC[C@@H](Nc2cc(C(=O)O)nc(-c3cnc4ccc(F)cn34)n2)C1 [Example 181, (R)-6-(1-(2-Cyanoacetyl)piperidin-3-ylamino)-2-(6-fluoroimidazo[1,2-a]pyridin-3-yl)pyrimidine-4-carboxylic acid] | 0.1 to 1 µM | < 0.1 µM | 0.1 to 1 µM
10 | C[C@H](Nc1cncc(-c2cnc3ccc(-c4ccccc4)cn23)n1)c1ccccc1 [Example 42, N-[(1S)-1-Phenylethyl]-6-(6-phenylimidazo[1,2-a]pyridin-3-yl)pyrazin-2-amine] | > 1 µM | 0.1 to 1 µM | > 1 µM
11 | CC(C)(C)CNc1nc(-c2cnc3ccc(C#N)cn23)nc2ccccc12 [Example 25] | 0.1 to 1 µM | 0.1 to 1 µM | 0.1 to 1 µM

Now from value to molecule:

Row | IC50 [1] | IC50 [2] | IC50 [3] | Compound
12 | > 1 µM | < 0.1 µM | > 1 µM | O=C(Cc1ccc(CO)cc1)N1CCC[C@@H](Nc2ccnc(-c3cnc4ccc(F)cn34)n2)C1 [Example 107, (R)-1-(3-(2-(6-Fluoroimidazo[1,2-a]pyridin-3-yl)pyrimidin-4-ylamino)piperidin-1-yl)-2-(4-(hydroxymethyl)phenyl)ethanone]
13 | < 0.1 µM | < 0.1 µM | < 0.1 µM | N#CCC(=O)N1CCC[C@@H](Nc2ccnc(-c3cnc4ccc(F)cn34)n2)C1 [Example 64, 3-((3R)-3-{[2-(6-Fluoroimidazo[1,2-a]pyridin-3-yl)pyrimidin-4-yl]amino}piperidin-1-yl)-3-oxopropanenitrile]
14 | 0.1 to 1 µM | 0.1 to 1 µM | > 1 µM | CC(C)(C)CNc1nc(-c2cnc3ccc(C#N)cn23)ncc1-c1cccnc1 [Example 13, 3-{4-[(2,2-Dimethylpropyl)amino]-5-pyridin-3-ylpyrimidin-2-yl}imidazo[1,2-a]pyridine-6-carbonitrile]
15 | < 0.1 µM | < 0.1 µM | < 0.1 µM | N#CCC(=O)N1CCC[C@@H](Nc2cc(OCCN3CCOCC3)nc(-c3cnc4ccc(F)cn34)n2)C1 [Example 175, (R)-3-(3-(2-(6-Fluoroimidazo[1,2-a]pyridin-3-yl)-6-(2-morpholinoethoxy)pyrimidin-4-ylamino)piperidin-1-yl)-3-oxopropanenitrile]
16 | 0.1 to 1 µM | 0.1 to 1 µM | > 1 µM | CC(C)S(=O)(=O)N1CCC[C@@H](Nc2ccnc(-c3cnc4ccc(C#N)cn34)n2)C1 [Example 45, 3-(4-{[(3R)-1-(Isopropylsulfonyl)piperidin-3-yl]amino}pyrimidin-2-yl)imidazo[1,2-a]pyridine-6-carbonitrile]
17 | < 0.1 µM | < 0.1 µM | > 1 µM | N#Cc1ccc2ncc(-c3nccc(N[C@H]4CC[C@H](O)CC4)n3)n2c1 [Example 22, 3-{4-[(Trans-4-hydroxycyclohexyl)amino]pyrimidin-2-yl}imidazo[1,2-a]pyridine-6-carbonitrile]
18 | 0.1 to 1 µM | < 0.1 µM | 0.1 to 1 µM | N#CCC(=O)N1CCC[C@@H](Nc2cc(N3CCC[C@H]3C(=O)O)nc(-c3cnc4ccc(F)cn34)n2)C1 [Example 172]
19 | < 0.1 µM | < 0.1 µM | > 1 µM | N#Cc1ccc(N2CCC[C@@H](Nc3ccnc(-c4cnc5ccc(C#N)cn45)n3)C2)nc1 [Example 57, 3-(4-{[(3R)-1-(5-Cyanopyridin-2-yl)piperidin-3-yl]amino}pyrimidin-2-yl)imidazo[1,2-a]pyridine-6-carbonitrile]
20 | 0.1 to 1 µM | < 0.1 µM | > 1 µM | C[C@H](Nc1cncc(-c2cnc3ccc(C4CC4)cn23)n1)c1ccccc1 [Example 38, 6-(6-Cyclopropylimidazo[1,2-a]pyridin-3-yl)-N-[(1S)-1-phenylethyl]pyrazin-2-amine]
21 | < 0.1 µM | < 0.1 µM | 0.1 to 1 µM | CCC[C@H](Nc1nc(-c2cnc3ccc(F)cn23)ncc1C(N)=O)c1ccc(F)cc1 [Example 151, (S)-2-(6-Fluoroimidazo[1,2-a]pyridin-3-yl)-4-(1-(4-fluorophenyl)butylamino) pyrimidine-5-carboxamide]
22 | < 0.1 µM | < 0.1 µM | > 1 µM | Fc1ccc2ncc(-c3nccc(N4CCCC4c4ccccn4)n3)n2c1 (stereo not drawn) [Example 90, 6-Fluoro-3-(4-(2-(pyridin-2-yl)pyrrolidin-1-yl)pyrimidin-2-yl)imidazo[1,2-a]pyridine]
23 | > 1 µM | 0.1 to 1 µM | > 1 µM | N#CCC(=O)N1CCCN(c2ccnc(-c3cnc4ccc(C#N)cn34)n2)CC1 [Example 82, 3-{4-[4-(Cyanoacetyl)-1,4-diazepan-1-yl]pyrimidin-2-yl}imidazo[1,2-a]pyridine-6-carbonitrile]
24 | 0.1 to 1 µM | < 0.1 µM | > 1 µM | O=C(CC(F)(F)F)N1CCC[C@@H](N(CC2CC2)c2ccnc(-c3cnc4ccc(F)cn34)n2)C1 [Example 76, N-(Cyclopropylmethyl)-2-(6-fluoroimidazo[1,2-a]pyridin-3-yl)-N-[(3R)-1-(3,3,3-trifluoropropanoyl)piperidin-3-yl]pyrimidin-4-amine]
25 | 0.1 to 1 µM | < 0.1 µM | > 1 µM | CS(=O)(=O)c1cnc(-c2cnc3ccc(F)cn23)nc1N[C@@H]1CCCN(C(=O)CC#N)C1 [Example 159, (R)-3-(3-(2-(6-Fluoroimidazo[1,2-a]pyridin-3-yl)-5-(methylsulfonyl)pyrimidin-4-ylamino)piperidin-1-yl)-3-oxopropanenitrile]
26 | < 0.1 µM | < 0.1 µM | 0.1 to 1 µM | C[C@H](Nc1ccnc(-c2cnc3ccc(C#N)cn23)n1)c1ccccc1 [Example 1, 3-(4-{[(1S)-1-Phenylethyl]amino}pyrimidin-2-yl)imidazo[1,2-a]pyridine-6-carbonitrile]
